Assay results as given in PMC10712727, “Safety, Tolerability, and Pharmacokinetics of Senaparib, a Novel PARP1/2 Inhibitor, in Chinese Patients With Advanced Solid Tumors: A Phase I Trial” (The Oncologist, 2023).

System: patients with advanced solid tumors
Assay: Safety: treatment-emergent and senaparib-related adverse events graded per NCI CTCAE v4.03
Type: in vivo
Description: This phase I, open-label, multicenter, dose-escalation, and dose-expansion study was conducted at three national clinical institutions in China. […] At baseline, all patients enrolled in the dose-escalation phase had to have at least one evaluable lesion, and those in the dose-expansion period had to have at least one measurable lesion, according to Response Evaluation Criteria in Solid Tumors version 1.1 (RECIST v1.1).[16] Entry to the dose-expansion cohort required the presence of a BRCA mutation, with the exception of patients with ovarian carcinoma, fallopian tube carcinoma, and primary peritoneal carcinoma. Full study eligibility criteria are provided in Supplementary Table S1.
Dose escalation was conducted using a modified Fibonacci 3 + 3 method (Supplementary Fig. S1).[17] Patients were administered oral senaparib from a planned starting dose of 2 mg once daily (QD), with preliminary dose escalation to 120 mg via nine dose groups, in order of their entry into the study. At a given dose level, each patient received a single dose of senaparib followed by a 7-day washout period. They then entered a continuous dosing period to confirm the safety and PK profile, in which they received senaparib QD from day 1 to day 21 of each 3-week cycle. Progression to the next higher dose required approval from the Data Safety Monitoring Committee (DSMC) upon review of the safety and PK data of the previous dose. A 50-mg twice-daily (BID) dosing group was added (planned enrollment, n = 6 patients) based on a DSMC review of the safety, PK, and efficacy analysis of the completed QD dose groups in the phase I clinical trial of senaparib dose escalation in Australia (NCT03507543), which commenced prior to the start of this trial.
The dose-expansion period included 3 populations: dose groups in which at least one patient achieved complete response (CR) or partial response (PR) per RECIST v1.1[16] and 1 dose group higher (evaluated for safety), as well as the dose group at the maximum tolerated dose (MTD)/recommended phase II dose (RP2D). Each of these groups included those patients in the respective dose-escalation group plus a planned additional 10 patients (approximately 20 patients in the MTD/RP2D group) with BRCA^mut+ solid tumors (ovarian, breast, or prostate cancer were preferred, and ovarian cancer could be BRCA wild type). Patients received senaparib monotherapy orally QD or BID (50-mg dose only) over each 3-week cycle until disease progression or unacceptable toxicity.
DLTs were predefined toxicities (Supplementary Table S2) recorded over the 7 days following the single-dose administration of senaparib and during the first treatment cycle (day 1-day 21) for each dose group in the dose-escalation period only. The MTD was defined as the maximum dose at which ≤1/6 patients experienced a DLT. Senaparib PK parameters were derived from blood samples collected from patients after the single administration, and at regular intervals during the first cycle of the dose-escalation and dose-expansion periods. Plasma concentrations of senaparib were determined using high-performance liquid chromatography-tandem mass spectrometry. Tumor response was assessed every 6 weeks per RECIST v1.1,[16] recording objective response rate (ORR), disease control rate (DCR), duration of response (DOR), and progression-free survival (PFS) by dose level for all patients and for those harboring BRCA^mut+ tumors.

SMILES: O=C(c1cc(Cn2c(=O)[nH]c(=O)c3c(F)cccc32)ccc1F)N1CCN(c2ncccn2)CC1 [Senaparib]
- Blood creatinine increased TRAE, Gr≥3 (10 mg QD n = 3): 0 n (%)
- Hypokalemia TRAE, All (10 mg QD n = 3): 0 n (%)
- Hypokalemia TRAE, Gr≥3 (10 mg QD n = 3): 0 n (%)
- Nausea TRAE, All (10 mg QD n = 3): 0 n (%)
- Nausea TRAE, Gr≥3 (10 mg QD n = 3): 0 n (%)
- Neutrophil count decreased TRAE, All (10 mg QD n = 3): 0 n (%)
- Neutrophil count decreased TRAE, Gr≥3 (10 mg QD n = 3): 0 n (%)
- Platelet count decreased TRAE, All (10 mg QD n = 3): 0 n (%)
- Platelet count decreased TRAE, Gr≥3 (10 mg QD n = 3): 0 n (%)
- SAEs, events (10 mg QD n = 3): 0 n ev
- SAEs, patients (10 mg QD n = 3): 0 n (%)
- TEAE Grade ≥3, events (10 mg QD n = 3): 0 n ev
- TEAE Grade ≥3, patients (10 mg QD n = 3): 0 n (%)
- TEAEs leading to death, events (10 mg QD n = 3): 0 n ev
- TEAEs leading to death, patients (10 mg QD n = 3): 0 n (%)
- TEAEs leading to dose discontinuation, events (10 mg QD n = 3): 0 n ev
- TEAEs leading to dose discontinuation, patients (10 mg QD n = 3): 0 n (%)
- TEAEs leading to dose interruption, events (10 mg QD n = 3): 0 n ev
- TEAEs leading to dose interruption, patients (10 mg QD n = 3): 0 n (%)
- TEAEs leading to dose reduction, events (10 mg QD n = 3): 0 n ev
- TEAEs leading to dose reduction, patients (10 mg QD n = 3): 0 n (%)
- TRAEs Grade ≥3, events (10 mg QD n = 3): 0 n ev
- TRAEs Grade ≥3, patients (10 mg QD n = 3): 0 n (%)
- TRAEs, patients (10 mg QD n = 3): 3 (100) n (%)
- Vomiting TRAE, All (10 mg QD n = 3): 0 n (%)
- Vomiting TRAE, Gr≥3 (10 mg QD n = 3): 0 n (%)
- WBC decreased TRAE, All (10 mg QD n = 3): 1 (33.3) n (%)
- WBC decreased TRAE, Gr≥3 (10 mg QD n = 3): 0 n (%)
- ALT increased TRAE, All (20 mg QD n = 5): 0 n (%)
- ALT increased TRAE, Gr≥3 (20 mg QD n = 5): 0 n (%)
- AST increased TRAE, All (20 mg QD n = 5): 0 n (%)
- AST increased TRAE, Gr≥3 (20 mg QD n = 5): 0 n (%)
- Anemia TRAE, All (20 mg QD n = 5): 1 (20.0) n (%)
- Anemia TRAE, Gr≥3 (20 mg QD n = 5): 1 (20.0) n (%)
- Any TEAE, All (20 mg QD n = 5): 5 (100) n (%)
- Any TEAE, Gr≥3 (20 mg QD n = 5): 2 (40.0) n (%)
- Any TEAE, events (20 mg QD n = 5): 30 n ev
- Any TEAE, patients (20 mg QD n = 5): 5 (100) n (%)
- Any TRAE, All (20 mg QD n = 5): 3 (60.0) n (%)
- Any TRAE, Gr≥3 (20 mg QD n = 5): 1 (20.0) n (%)
- Appetite decreased TRAE, All (20 mg QD n = 5): 0 n (%)
- Appetite decreased TRAE, Gr≥3 (20 mg QD n = 5): 0 n (%)
- Asthenia TRAE, All (20 mg QD n = 5): 1 (20.0) n (%)
- Asthenia TRAE, Gr≥3 (20 mg QD n = 5): 0 n (%)
- Blood bilirubin increased TRAE, All (20 mg QD n = 5): 0 n (%)
- Blood bilirubin increased TRAE, Gr≥3 (20 mg QD n = 5): 0 n (%)
- Blood creatinine increased TRAE, All (20 mg QD n = 5): 1 (20.0) n (%)
- Blood creatinine increased TRAE, Gr≥3 (20 mg QD n = 5): 0 n (%)
- Hypokalemia TRAE, All (20 mg QD n = 5): 1 (20.0) n (%)
- Hypokalemia TRAE, Gr≥3 (20 mg QD n = 5): 0 n (%)
- Nausea TRAE, All (20 mg QD n = 5): 1 (20.0) n (%)
- Nausea TRAE, Gr≥3 (20 mg QD n = 5): 0 n (%)
- Neutrophil count decreased TRAE, All (20 mg QD n = 5): 0 n (%)
- Neutrophil count decreased TRAE, Gr≥3 (20 mg QD n = 5): 0 n (%)
- Platelet count decreased TRAE, All (20 mg QD n = 5): 1 (20.0) n (%)
- Platelet count decreased TRAE, Gr≥3 (20 mg QD n = 5): 0 n (%)
- SAEs, events (20 mg QD n = 5): 1 n ev
- SAEs, patients (20 mg QD n = 5): 1 (20.0) n (%)
- TEAE Grade ≥3, events (20 mg QD n = 5): 3 n ev
- TEAE Grade ≥3, patients (20 mg QD n = 5): 2 (40.0) n (%)
- TEAEs leading to death, events (20 mg QD n = 5): 1 n ev
- TEAEs leading to death, patients (20 mg QD n = 5): 1 (20.0) n (%)
- TEAEs leading to dose discontinuation, events (20 mg QD n = 5): 2 n ev
- TEAEs leading to dose discontinuation, patients (20 mg QD n = 5): 2 (40.0) n (%)
- TEAEs leading to dose interruption, events (20 mg QD n = 5): 1 n ev
- TEAEs leading to dose interruption, patients (20 mg QD n = 5): 1 (20.0) n (%)
- TEAEs leading to dose reduction, events (20 mg QD n = 5): 0 n ev
- TEAEs leading to dose reduction, patients (20 mg QD n = 5): 0 n (%)
- TRAEs Grade ≥3, events (20 mg QD n = 5): 1 n ev
- TRAEs Grade ≥3, patients (20 mg QD n = 5): 1 (20.0) n (%)
- TRAEs, events (20 mg QD n = 5): 15 n ev
- TRAEs, patients (20 mg QD n = 5): 3 (60.0) n (%)
- Vomiting TRAE, All (20 mg QD n = 5): 0 n (%)
- Vomiting TRAE, Gr≥3 (20 mg QD n = 5): 0 n (%)
- WBC decreased TRAE, All (20 mg QD n = 5): 1 (20.0) n (%)
- WBC decreased TRAE, Gr≥3 (20 mg QD n = 5): 0 n (%)
- ALT increased TRAE, All (40 mg QD n = 3): 0 n (%)
- ALT increased TRAE, Gr≥3 (40 mg QD n = 3): 0 n (%)
- AST increased TRAE, All (40 mg QD n = 3): 0 n (%)
- AST increased TRAE, Gr≥3 (40 mg QD n = 3): 0 n (%)
- Anemia TRAE, All (40 mg QD n = 3): 1 (33.3) n (%)
- Anemia TRAE, Gr≥3 (40 mg QD n = 3): 0 n (%)
- Any TEAE, All (40 mg QD n = 3): 3 (100) n (%)
- Any TEAE, Gr≥3 (40 mg QD n = 3): 0 n (%)
- Any TEAE, events (40 mg QD n = 3): 7 n ev
- Any TEAE, patients (40 mg QD n = 3): 3 (100) n (%)
- Any TRAE, All (40 mg QD n = 3): 3 (100) n (%)
- Any TRAE, Gr≥3 (40 mg QD n = 3): 0 n (%)
- Appetite decreased TRAE, All (40 mg QD n = 3): 0 n (%)
- Appetite decreased TRAE, Gr≥3 (40 mg QD n = 3): 0 n (%)
- Asthenia TRAE, All (40 mg QD n = 3): 1 (33.3) n (%)
- Asthenia TRAE, Gr≥3 (40 mg QD n = 3): 0 n (%)
- Blood bilirubin increased TRAE, All (40 mg QD n = 3): 0 n (%)
- Blood bilirubin increased TRAE, Gr≥3 (40 mg QD n = 3): 0 n (%)
- Blood creatinine increased TRAE, All (40 mg QD n = 3): 1 (33.3) n (%)
- Blood creatinine increased TRAE, Gr≥3 (40 mg QD n = 3): 0 n (%)
- Hypokalemia TRAE, All (40 mg QD n = 3): 0 n (%)
- Hypokalemia TRAE, Gr≥3 (40 mg QD n = 3): 0 n (%)
- Nausea TRAE, All (40 mg QD n = 3): 0 n (%)
- Nausea TRAE, Gr≥3 (40 mg QD n = 3): 0 n (%)
- Neutrophil count decreased TRAE, All (40 mg QD n = 3): 0 n (%)
- Neutrophil count decreased TRAE, Gr≥3 (40 mg QD n = 3): 0 n (%)
- Platelet count decreased TRAE, All (40 mg QD n = 3): 0 n (%)
- Platelet count decreased TRAE, Gr≥3 (40 mg QD n = 3): 0 n (%)
- SAEs, events (40 mg QD n = 3): 0 n ev
- SAEs, patients (40 mg QD n = 3): 0 n (%)
- TEAE Grade ≥3, events (40 mg QD n = 3): 0 n ev
- TEAE Grade ≥3, patients (40 mg QD n = 3): 0 n (%)
- TEAEs leading to death, events (40 mg QD n = 3): 0 n ev
- TEAEs leading to death, patients (40 mg QD n = 3): 0 n (%)
- TEAEs leading to dose discontinuation, events (40 mg QD n = 3): 0 n ev
- TEAEs leading to dose discontinuation, patients (40 mg QD n = 3): 0 n (%)
- TEAEs leading to dose interruption, events (40 mg QD n = 3): 0 n ev
- TEAEs leading to dose interruption, patients (40 mg QD n = 3): 0 n (%)
- TEAEs leading to dose reduction, events (40 mg QD n = 3): 0 n ev
- TEAEs leading to dose reduction, patients (40 mg QD n = 3): 0 n (%)
